According to patent US20090163696A1, “METHOD FOR PREPARING LYSOBACTIN DERIVATIVES” (priority 2006, published 2009):
*1 amine or outer side, *2 acyl side, *3 side chain or, on linkers, in order; H or OH if unused. Where a SMILES comes first, the peptide text is derived from it. Bridges are numbered along the chain shown (N, C = ends). [ ]: non-standard residue; d: D form. ξ: configuration not given here. Phe(3R-OH) = O=C([C@@H](N[*:1])[C@H](O[*:3])c1ccccc1)[*:2]; Asn(3S-OH) = NC(=O)[C@@H](O)[C@H](N)C(=O)O; Leu(3R-OH) = CC(C)[C@@H](O)[C@H](N)C(=O)O; aThr = C[C@H](O)[C@H](N)C(=O)O; ξS = NC(CO)C(=O)O

System: Staphylococcus aureus 133, Entercococcus faecalis ICB27159 and Streptococcus pneumoniae G9a
Assay: Determination of the minimum inhibitory concentration (MIC), liquid dilution test
Type: cell-based
Conditions: lysobactin prepared by complete synthesis compared with fermented lysobactin
Experimental: The in vitro effect of the compounds of the invention can be shown in the following assay: Determination of the Minimum Inhibitory Concentration (MIC): The MIC is determined in the liquid dilution test in accordance with the NCCLS guidelines. Overnight cultures of Staphylococcus aureus 133, Entercococcus faecalis ICB27159 and Streptococcus pneumoniae G9a are incubated with the described test substances in a 1:2 dilution series. The MIC determination is carried out with a cell count of 10^5 microbes per ml in Isosensitest medium (Difco, Irvine/USA), with the exception of S. pneumoniae, which is tested in BHI broth (Difco, Irvine/USA) with 10% bovine serum at a cell count of 10^6 microbes per ml. The cultures are incubated at 37° C. for 18-24 hours, S. pneumoniae in the presence of 10% CO2. The MIC is defined as the lowest concentration of each substance at which no visible bacterial growth occurs any longer. The MIC values are reported in μg/ml.

Structure (SMILES): CC[C@H](C)[C@@H]1NC(=O)[C@@H](CCCNC(=N)N)NC(=O)[C@H](CC(C)C)NC(=O)[C@H]([C@H](O)C(C)C)NC(=O)[C@@H](NC(=O)[C@H](CC(C)C)NC(=O)[C@H](N)CC(C)C)[C@@H](c2ccccc2)OC(=O)C(CO)NC(=O)[C@H]([C@H](O)C(N)=O)NC(=O)CNC(=O)[C@H]([C@H](C)O)NC1=O (stereo partly drawn) [lysobactin, Lysobactin Bistrifluoroacetate] (H-[dL]L[Phe(3R-OH)][Leu(3R-OH)]L[dR]I[aThr]G[Asn(3S-OH)][ξS]; ester 3-C)
- physiological activity (MIC): No significant differences
